Where a name gives a salt, the structure may show the parent alone. Bounds are passed on as bounds.

One experiment deals with K^+ (ATP) channel.
Experiment: not given
The conditions noted are these: cromakalim (formula A) and analogous acylamino compounds; cited from earlier work.
On to `CC1(C)Oc2ccc(C#N)cc2[C@@H](N2CCCC2=O)[C@@H]1O` (relative stereo) [cromakalim], for which the “action on ATP-sensitive K^+ channels” value is “act as openers of ATP-sensitive K^+ channels”.

For another experiment, the target named is T1, human IsK protein (UniProt P15382+P70057).
T1 construct: channel formed with endogenous oocyte KCNQ1; two-microelectrode voltage clamp
T1 sequence (P70057 whole entry): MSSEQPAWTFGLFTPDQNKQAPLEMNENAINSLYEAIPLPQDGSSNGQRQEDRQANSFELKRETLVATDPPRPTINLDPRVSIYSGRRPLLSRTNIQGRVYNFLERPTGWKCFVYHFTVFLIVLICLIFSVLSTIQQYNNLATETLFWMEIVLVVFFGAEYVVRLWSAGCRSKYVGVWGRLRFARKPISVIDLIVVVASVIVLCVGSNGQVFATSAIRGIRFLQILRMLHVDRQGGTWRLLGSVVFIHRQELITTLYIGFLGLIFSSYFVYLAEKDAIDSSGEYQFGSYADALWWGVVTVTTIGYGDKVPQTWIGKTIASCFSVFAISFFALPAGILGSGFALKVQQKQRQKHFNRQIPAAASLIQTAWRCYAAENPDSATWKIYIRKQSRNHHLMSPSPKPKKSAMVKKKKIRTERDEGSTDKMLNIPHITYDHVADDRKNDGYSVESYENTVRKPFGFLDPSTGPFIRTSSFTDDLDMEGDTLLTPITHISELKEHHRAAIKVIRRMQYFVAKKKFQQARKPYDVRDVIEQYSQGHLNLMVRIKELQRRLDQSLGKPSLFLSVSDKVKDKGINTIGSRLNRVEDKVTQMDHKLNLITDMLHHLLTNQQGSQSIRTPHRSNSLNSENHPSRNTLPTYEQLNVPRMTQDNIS
Briefly: cell-based. The conditions noted are these: human IsK expressed in Xenopus oocytes, -10 mV voltage jumps lasting 15 s, room temperature, pH 7.5; Hill equation.
For `CCOC(=O)CN(C)C(=O)CN(C1CC(C)(C)Oc2ccc(OCc3ccccc3)cc21)S(C)(=O)=O` (stereo not shown) [Example 32, Ethyl ({2-[(6-benzyloxy-2,2-dimethylchroman-4-yl)methanesulfonylamino]acetyl}methylamino)acetate], the IC50 (usually the midpoint of a concentration-inhibition curve) came to 250 nM. For the compound `CCS(=O)(=O)N(CC(=O)NCCN(C)Cc1ccccc1)C1CC(C)(C)Oc2ccc(F)cc21` (stereo not shown) [Example 62, N-[2-(Benzyl-methyl-amino)-ethyl]-2-[ethanesulfonyl-(6-fluoro-2,2-dimethyl-chroman-4-yl)-amino]-acetamide], the IC50 was less than 1000 nM. As for `CCS(=O)(=O)N(CC(=O)NCCc1ccccc1)C1CC(C)(C)Oc2ccc(F)cc21` (stereo not shown) [Example 21, 2-[Ethanesulfonyl-(6-fluoro-2,2-dimethylchroman-4-yl)amino]-N-phenethylacetamide], the IC50 worked out at 46 nM. Consider `CCS(=O)(=O)N(CC(=O)Nc1ncccn1)C1CC(C)(C)Oc2ccc(F)cc21` (stereo not shown) [Example 24, 2-[Ethanesulfonyl-(6-fluoro-2,2-dimethylchroman-4-yl)amino]-N-pyrimidin-2-ylacetamide], for which half-maximal inhibition (IC50) was put at 1000 nM. `CCCCOc1ccc2c(c1)C(N(CCCOCCO)S(C)(=O)=O)CC(C)(C)O2` (stereo not shown) [Example 45, N-(6-Butoxy-2,2-dimethylchroman-4-yl)-N-[3-(2-hydroxyethoxy)propyl]methanesulfonamide] displayed a half-inhibitory concentration (IC50) of 450 nM.

On to `CCCCOc1ccc2c(c1)C(N(CC(=O)NC(=N)N)S(C)(=O)=O)CC(C)(C)O2` (stereo not shown) [Example 56, N-(6-Butoxy-2,2-dimethylchroman-4-yl)-N-(2-guanidino-2-oxoethyl)methanesulfonamide], for which the concentration for half-maximal inhibition (IC50) came out at 3400 nM. Consider `CCS(=O)(=O)N(CC(=O)Nc1cnccn1)C1CC(C)(C)Oc2ccc(F)cc21` (stereo not shown) [Example 25, 2-[Ethanesulfonyl-(6-fluoro-2,2-dimethylchroman-4-yl)amino]-N-pyrazin-2-ylacetamide], for which 450 nM corresponded to half-maximal inhibition (IC50). Same read-out and setting: the same measure for `CCCCNC(=O)CCCN(C1CC(C)(C)Oc2ccc(OCc3ccccc3)cc21)S(C)(=O)=O` (stereo not shown) [Example 28, 4-[(6-Benzyloxy-2,2-dimethylchroman-4-yl)methanesulfonylamino]-N-butylbutyramide]: 470 nM; for `CCOC(=O)CN(C)C(=O)CCCN(C1CC(C)(C)Oc2ccc(OCc3ccccc3)cc21)S(C)(=O)=O` (stereo not shown) [Example 31, Ethyl ({4-[(6-benzyloxy-2,2-dimethylchroman-4-yl)methanesulfonylamino]butyryl}methylamino)acetate]: 280 nM. In turn, `CCS(=O)(=O)N(CC(=O)Nc1ccccn1)C1CC(C)(C)Oc2ccc(F)cc21` (stereo not shown) [Example 14, 2-[(6-Fluoro-2,2-dimethylchroman-4-yl)ethanesulfonylamino]-N-pyridin-2-ylacetamide] came in with a 50% inhibitory concentration (IC50) of 180 nM. `CCS(=O)(=O)N(CC(=O)Nc1ccncc1)C1CC(C)(C)Oc2ccc(F)cc21` (stereo not shown) [Example 22, 2-[Ethanesulfonyl-(6-fluoro-2,2-dimethylchroman-4-yl)amino]-N-pyridin-4-ylacetamide] had a half-maximal inhibitory concentration (IC50) of 670 nM.

In turn, `CN(CCc1ccccn1)C(=O)CN(C1CC(C)(C)Oc2ccc(OCc3ccccc3)cc21)S(C)(=O)=O` (stereo not shown) [Example 40, 2-[(6-Benzyloxy-2,2-dimethylchroman-4-yl)methanesulfonylamino]-N-methyl-N-(2-pyridin-2-yl-ethyl)acetamide hydrochloride] had a 50% inhibitory concentration (IC50) of 350 nM. For `CCS(=O)(=O)N(CC(=O)Nc1nc2ccccc2n1C)C1CC(C)(C)Oc2ccc(F)cc21` (stereo not shown) [Example 27, 2-[Ethanesulfonyl-(6-fluoro-2,2-dimethylchroman-4-yl)amino]-N-(1-methyl-1H-benzoimidazol-2-yl)acetamide], it took 2100 nM to reach half-maximal inhibition (IC50).

As for `CCS(=O)(=O)N(CC(=O)OCCN(C)Cc1ccccc1)C1CC(C)(C)Oc2ccc(F)cc21` (stereo not shown) [Example 49, 2-(Benzylmethylamino)ethyl [ethanesulfonyl-(6-fluoro-2,2-dimethylchroman-4-yl)amino]acetate], the half-inhibitory concentration (IC50) was determined as 83 nM. Same read-out and setting: the result for `CCOCCOCCOC(=O)CN(C1CC(CC)(CC)Oc2ccc(C)cc21)S(=O)(=O)CC` (stereo not shown) [Example 4, 2-(2-Ethoxyethoxy)ethyl [(2,2-diethyl-6-methylchroman-4-yl)-ethylsulfonylamino]acetate] reads 1000 nM. Take `CN(CCc1ccccc1)C(=O)CN(C1CC(C)(C)Oc2ccc(OCc3ccccc3)cc21)S(C)(=O)=O` (stereo not shown) [Example 39, 2-[(6-Benzyloxy-2,2-dimethylchroman-4-yl)methanesulfonylamino]-N-methyl-N-phenethylacetamide]: 310 nM corresponded to half-maximal inhibition (IC50). Regarding `COCCOCCCCN(C1CC(C)(C)Oc2ccc(OCc3ccccc3)cc21)S(C)(=O)=O` (stereo not shown) [Example 29, N-(6-Benzyloxy-2,2-dimethylchroman-4-yl)-N-[4-(2-methoxyethoxy)butyl]methanesulfonamide], the IC50 was less than 1000 nM. The compound `CCS(=O)(=O)N(CC(=O)Nc1cccnc1)C1CC(C)(C)Oc2ccc(F)cc21` (stereo not shown) [Example 23, 2-[Ethanesulfonyl-(6-fluoro-2,2-dimethylchroman-4-yl)-amino]N-pyridin-3-ylacetamide] returned a 50% inhibitory concentration (IC50) of 550 nM.

The compound `COCCOCCN(C1CC(C)(C)Oc2ccc(OCc3ccccc3)cc21)S(C)(=O)=O` (stereo not shown) [Example 38, N-(6-Benzyloxy-2,2-dimethylchroman-4-yl)-N-[2-(2-methoxyethoxy)ethyl]methanesulfonamide] came in with a concentration for half-maximal inhibition (IC50) of 1420 nM. Consider `CCCCOc1ccc2c(c1)C(N(CCOCC(=O)O)S(C)(=O)=O)CC(C)(C)O2` (stereo not shown) [Example 43, {2-[(6-Butoxy-2,2-dimethylchroman-4-yl)methanesulfonylamino]ethoxy}acetic acid], for which inhibition was half-maximal at 7800 nM (IC50). On the same count and under the same terms, the result for `CC1(C)CC(N(CC(=O)NCCc2ccccn2)S(C)(=O)=O)c2cc(OCc3ccccc3)ccc2O1` (stereo not shown) [Example 17, 2-[(6-Benzyloxy-2,2-dimethylchroman-4-yl)methanesulfonylamino]-N-(2-pyridin-2-yl-ethyl)acetamide] reads less than 1000 nM; that for `Cc1ccc2c(c1)C(N(CCCCC(=O)OCCN(C)Cc1ccccc1)S(C)(=O)=O)CC(C)(C)O2` (stereo not shown) [Example 10, 2-(Benzylmethylamino)ethyl 5-[methanesulfonyl-(2,2,6-trimethylchroman-4-yl)amino]pentanoate], 790 nM; that for `CC1(C)CC(N(CCCCOCC(=O)O)S(C)(=O)=O)c2cc(OCc3ccccc3)ccc2O1` (stereo not shown) [Example 34, {4-[(6-Benzyloxy-2,2-dimethylchroman-4-yl)methanesulfonylamino]butoxy}acetic acid], roughly 700 nM. The same measure, in the same setting: the same measure for `CCCCOc1ccc2c(c1)C(N(CCCOC(=O)NCCN1CCOCC1)S(C)(=O)=O)CC(C)(C)O2` (stereo not shown) [Example 47, 3-[(6-Butoxy-2,2-dimethylchroman-4-yl)methanesulfonylamino]propyl (^2-morpholin-4-yl-ethyl)carbamate]: 750 nM; for `CC1(C)Oc2ccc(Cl)cc2[C@@H](N(CC(=O)NCCc2ccccc2)S(C)(=O)=O)[C@@H]1O` (relative stereo) [Example 58, 2-[(6-Chloro-3-hydroxy-2,2-dimethylchroman-4-yl)methanesulfonylamino]-N-phenethylacetamide]: 500 nM; for `CCS(=O)(=O)N(CC(=O)Nc1nc[nH]n1)C1CC(C)(C)Oc2ccc(F)cc21` (stereo not shown) [Example 54, 2-[Ethanesulfonyl-(6-fluoro-2,2-dimethylchroman-4-yl)amino]-N-(1H-[1,2,4]triazol-3-yl)acetamide]: 830 nM. The same measure, in the same setting: the result for `CCS(=O)(=O)N(CC(=O)NCCc1ccccn1)C1CC(C)(C)Oc2ccc(F)cc21` (stereo not shown) [Example 9, 2-[Ethylsulfonyl-(6-fluoro-2,2-dimethylchroman-4-yl)amino]-N-(2-pyridin-2-ylethyl)acetamide] reads 1600 nM; that for `CCS(=O)(=O)N(CC(=O)Nc1nc2ccccc2[nH]1)C1CC(C)(C)Oc2ccc(F)cc21` (stereo not shown) [Example 61, N-(1H-Benzoimidazol-2-yl)-2-[ethanesulfonyl-(6-fluoro-2,2-dimethyl-chroman-4-yl)-amino]-acetamide], less than 1000 nM. `CCCCOc1ccc2c(c1)C(N(CCOCCOC)S(C)(=O)=O)CC(C)(C)O2` (stereo not shown) [Example 42, N-(6-Butoxy-2,2-dimethylchroman-4-yl)-N-[2-(2-methoxyethoxy)ethyl]methanesulfonamide] gave a concentration for half-maximal inhibition (IC50) of 340 nM.

In another experiment the test system is IKr.
Experiment: not given
The conditions noted are these: known class III antiarrhythmics; cited from earlier work.
For the compound `CC(C)NC[C@@H](O)c1ccc(NS(C)(=O)=O)cc1` [d-sotalol], the “block of IKr” value is listed as “mainly or exclusively block IKr”.

Values taken from patent publication US5955607A, “Sulfonamide-substituted chromans, processes for their preparation, their use as a medicament or diagnostic, and pharmaceutical preparations comprising them” (priority 1997, dated 1999).
